Experiment [1] has as its target T1, AChE (EC 3.1.1.7) from electric eel (Electrophorus electricus, UniProt O42275).
T1 construct: purchased Sigma-Aldrich C3389
The experiment is described as follows: biochemical. As to conditions: for IC50: AChE from electric eel, mean ± SEM of three experiments; for Selectivity index (SI) = BuChE IC50/AChE IC50: eqBuChE IC50 / eeAChE IC50. As for the experimental part:
(§1) AChE (EC 3.1.1.7, Type VI-S, from electric eel, C3389; from human, C1682) and BuChE (EC 3.1.1.8, from equine serum, C0663; from human, B4186), 5,5'-dithiobis (2-nitrobenzoic acid) (DTNB, D218200), acetylthiocholine iodide (ATC, A5751), and butyrylthiocholine iodide (BTC, B3253) were obtained from Sigma-Aldrich (St. Louis, MO).
(§2) The inhibitory effects of the synthesised compounds in this paper were evaluated according to our previously reported method. […] ATC/BTC iodide solution (0.075 M) was prepared in deionised water. […] The assay buffer was prepared as follows: potassium dihydrogen phosphate (1.36 g, 10 mmol) was dissolved in 100 ml of water. The pH of the solution was then adjusted to 8.0 ± 0.1 with KOH. Stock solutions of the test samples were dissolved in ethanol to give a final concentration of 10^−4 M when diluted to the final volume of 3.32 ml. For each compound, a dilution series of at least five different concentrations (normally 10^−5–10^−9 M) were prepared.
(§3) For measurement, a cuvette containing 3.0 ml of phosphate buffer, 100 µL of AChE or BuChE, 100 µL of DTNB, and 100 µL of the test compound solution were added in sequence. The reaction was initiated after adding 20 µL of ATC or BTC, and the solution was mixed immediately. […] For the reference value, 100 µL of water replaced the test compound solution. For the blank control, additionally 100 µL of water replaced the enzyme solution. The measurement for each concentration was assayed in triplicate. GraphPad Prism 5 was used for data processing. The inhibition curve was fitted by plotting percentage enzyme activity (100% for the reference) versus logarithm of test compound concentration. The IC50 values were calculated according to the curve, and the data were shown in mean ± SEM.
(§4) The inhibitory effects on ChEs of all the target compounds were determined according to Ellman’s method. AChE from electrophorus electricus (eeAChE) and BuChE from equine serum (eqBuChE) were used in the assays.

In experiment [2] the target is T2, BuChE (EC 3.1.1.8) from horse serum (Equus caballus, UniProt P81908).
T2 construct: purchased Sigma-Aldrich C0663; host or cells: equine serum
The experiment is described as follows: biochemical. It counts as biochemical. Particulars: for IC50: BuChE from horse serum, mean ± SEM of three experiments; for selective index (selectivity on BuChE): selectivity on BuChE over AChE (eeAChE, eqBuChE). As for the experimental part: as §1, §2, §3, §4

T2 sequence (P81908 whole entry): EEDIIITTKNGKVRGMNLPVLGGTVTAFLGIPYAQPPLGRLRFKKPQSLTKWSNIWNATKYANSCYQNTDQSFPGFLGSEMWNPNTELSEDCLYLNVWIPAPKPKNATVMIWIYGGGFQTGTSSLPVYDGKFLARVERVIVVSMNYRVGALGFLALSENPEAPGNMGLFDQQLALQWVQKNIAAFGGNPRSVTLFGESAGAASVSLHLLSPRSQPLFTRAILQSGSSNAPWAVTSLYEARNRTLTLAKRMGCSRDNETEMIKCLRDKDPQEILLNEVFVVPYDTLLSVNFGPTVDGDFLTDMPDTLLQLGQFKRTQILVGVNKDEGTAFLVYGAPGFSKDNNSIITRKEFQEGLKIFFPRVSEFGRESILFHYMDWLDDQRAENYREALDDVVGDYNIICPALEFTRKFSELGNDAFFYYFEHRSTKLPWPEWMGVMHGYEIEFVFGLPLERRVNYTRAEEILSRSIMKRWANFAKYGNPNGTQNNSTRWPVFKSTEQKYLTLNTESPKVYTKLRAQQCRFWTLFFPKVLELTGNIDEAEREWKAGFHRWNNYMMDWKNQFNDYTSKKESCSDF
T1 sequence (O42275 24-633): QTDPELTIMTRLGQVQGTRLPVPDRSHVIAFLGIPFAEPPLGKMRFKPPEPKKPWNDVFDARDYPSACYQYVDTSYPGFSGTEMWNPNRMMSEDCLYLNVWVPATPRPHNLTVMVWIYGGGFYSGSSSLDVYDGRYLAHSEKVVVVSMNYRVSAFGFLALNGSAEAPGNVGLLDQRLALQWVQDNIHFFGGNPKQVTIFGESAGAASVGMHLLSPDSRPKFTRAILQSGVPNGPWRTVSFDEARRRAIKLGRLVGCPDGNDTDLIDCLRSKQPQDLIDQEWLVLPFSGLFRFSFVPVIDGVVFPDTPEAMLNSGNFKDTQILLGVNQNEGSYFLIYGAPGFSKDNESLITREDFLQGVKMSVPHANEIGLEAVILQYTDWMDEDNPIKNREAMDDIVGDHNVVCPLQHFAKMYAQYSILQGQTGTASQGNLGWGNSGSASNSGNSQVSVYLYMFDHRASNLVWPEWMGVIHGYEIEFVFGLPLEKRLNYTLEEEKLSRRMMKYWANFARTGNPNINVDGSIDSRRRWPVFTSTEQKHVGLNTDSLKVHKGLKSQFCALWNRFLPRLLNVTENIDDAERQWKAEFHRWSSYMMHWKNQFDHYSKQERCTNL

On to `Cc1ccc(/C=C/C(=O)NCCCCCCNc2c3c(nc4ccccc24)CCCC3)cc1` [Compound 16, (E)-N-(6-((1,2,3,4-tetrahydroacridin-9-yl)amino)hexyl)-3-(p-tolyl)acrylamide], for which, in experiment [1], it took 22 ± 3.7 nM to reach half-maximal inhibition (IC50) and the “Selectivity index (SI) = BuChE IC50/AChE IC50” value is 2.5. The IC50 in experiment [2] came to 54.4 ± 11.7 nM.

For `COc1cc(/C=C/C(=O)NCCCCCCNc2c3c(nc4ccccc24)CCCC3)cc(OC)c1OC` [Compound 32, (E)-N-(6-((1,2,3,4-tetrahydroacridin-9-yl)amino)hexyl)-3–(3,4,5-trimethoxyphenyl)acrylamide], in experiment [1], the IC50 came to 6.4 ± 2.2 nM and the “Selectivity index (SI) = BuChE IC50/AChE IC50” value is recorded as 0.5. Moreover, the half-maximal inhibitory concentration (IC50) in experiment [2] came out at 3.4 ± 0.4 nM.

For `O=C(/C=C/c1ccccc1[N+](=O)[O-])NCCCCCCNc1c2c(nc3ccccc13)CCCC2` [Compound 17, (E)-3-(2-nitrophenyl)-N-(6-((1,2,3,4-tetrahydroacridin-9-yl)amino)hexyl)acrylamide], the results for the IC50 in experiment [1] and in experiment [2] were 17.5 ± 3.7 nM and 3.6 ± 0.3 nM, respectively. Further, in experiment [1], the “Selectivity index (SI) = BuChE IC50/AChE IC50” value stood at 0.2.

Turning to `O=C(/C=C/c1ccc(F)cc1)NCCCCCCNc1c2c(nc3ccccc13)CCCC2` [Compound 24, (E)-3-(4-fluorophenyl)-N-(6-((1,2,3,4-tetrahydroacridin-9-yl)amino)hexyl)acrylamide], in experiment [1], half-maximal inhibition (IC50) required 15.4 ± 3.3 nM and the “Selectivity index (SI) = BuChE IC50/AChE IC50” value was determined as 4.3. The IC50 in experiment [2] is 65.9 ± 21.4 nM.

Consider `O=C(C=Cc1ccccc1)NCCCCNc1c2c(nc3ccccc13)CCCC2` [Compound 11, N-(4-((1,2,3,4-tetrahydroacridin-9-yl)amino)butyl)cinnamamide], for which, in experiment [1], the IC50 was 209 ± 76 nM and the “Selectivity index (SI) = BuChE IC50/AChE IC50” value came to 0.01. In experiment [2], it took 2.9 ± 0.4 nM to reach half-maximal inhibition (IC50) and the “selective index (selectivity on BuChE)” value is given as 71.17.

With `O=C(/C=C/c1ccccc1)NCCCCCCCCNc1c2c(nc3ccccc13)CCCC2` [Compound 13], the figures for the IC50 in experiment [1] and in experiment [2] were 22.8 ± 9.2 nM and 7.8 ± 4.7 nM, respectively. The “Selectivity index (SI) = BuChE IC50/AChE IC50” value in experiment [1] is 0.3.

For `N#Cc1cccc(/C=C/C(=O)NCCCCCCNc2c3c(nc4ccccc24)CCCC3)c1` [Compound 29], in experiment [1], the IC50 amounted to 5.1 ± 0.8 nM and the “Selectivity index (SI) = BuChE IC50/AChE IC50” value came out at 13.4. Further, it took 68.5 ± 13.6 nM to reach half-maximal inhibition in experiment [2] (IC50).

Take `O=C(/C=C/c1ccc(C(F)(F)F)cc1)NCCCCCCNc1c2c(nc3ccccc13)CCCC2` [Compound 23, (E)-N-(6-((1,2,3,4-tetrahydroacridin-9-yl)amino)hexyl)-3–(4-(trifluoromethyl)phenyl)acrylamide]: in experiment [1], the midpoint of inhibition, the IC50, lay at 8.1 ± 0.3 nM and the “Selectivity index (SI) = BuChE IC50/AChE IC50” value is reported as 2.0. In addition, the IC50 in experiment [2] turned out to be 16.4 ± 1.8 nM.

Take `O=C(/C=C/c1ccc(Br)cc1)NCCCCCCNc1c2c(nc3ccccc13)CCCC2` [Compound 28, (E)-3-(4-bromophenyl)-N-(6-((1,2,3,4-tetrahydroacridin-9-yl)amino)hexyl)acrylamide]: in experiment [1], half-maximal inhibition (IC50) required 19.1 ± 2 nM and the “Selectivity index (SI) = BuChE IC50/AChE IC50” value was found to be 1.6. For the same compound, 29.9 ± 1.8 nM corresponded to half-maximal inhibition in experiment [2] (IC50).

With `O=C(C=Cc1ccccc1)NCCCCCCNc1c2c(nc3ccccc13)CCCC2` [Compound 12, N-(6-((1,2,3,4-tetrahydroacridin-9-yl)amino)hexyl)cinnamamide], in experiment [1], 26.5 ± 10.7 nM corresponded to half-maximal inhibition (IC50) and the “Selectivity index (SI) = BuChE IC50/AChE IC50” value amounted to 1.3. 34.4 ± 16.6 nM corresponded to half-maximal inhibition in experiment [2] (IC50).

Take `O=C(/C=C/c1ccccc1)NCCCNc1c2c(nc3ccccc13)CCCC2` [Compound 10]: in experiment [1], inhibition was half-maximal at 100 ± 5.2 nM (IC50) and the “Selectivity index (SI) = BuChE IC50/AChE IC50” value was 0.03. In experiment [2], the IC50 is 3.5 ± 0.4 nM and the “selective index (selectivity on BuChE)” value is 28.7.

Turning to `O=C(/C=C/c1cccc(Cl)c1)NCCCCCCNc1c2c(nc3ccccc13)CCCC2` [Compound 26, (E)-3-(3-chlorophenyl)-N-(6-((1,2,3,4-tetrahydroacridin-9-yl)amino)hexyl)acrylamide], in experiment [1], the midpoint of inhibition, the IC50, lay at 16.2 ± 6.5 nM and the “Selectivity index (SI) = BuChE IC50/AChE IC50” value came out at 0.6. The compound also yielded an IC50 in experiment [2] of 9.2 ± 2.5 nM.

In general, IC50 refers to the concentration needed to halve the response being measured.
